This data set can be described thus: in vitro. The settings on record: human, hela cells, % viability.

As usually defined, the viability is a read-out of living cells in per cent, often relative to untreated cells. Take `CS(=O)(=O)N1CCN(c2ccc(NC(=O)CSc3nc(-c4ccccc4)cs3)cc2)CC1` [CBK267934]: the viability at 28.5 h, 10 µM turned out to be 91.2%.

Take `CC(=O)Nc1ccc(S(=O)(=O)NC2(C(F)(F)F)C(=O)Nc3c2c(=O)[nH]c(=O)n3CCc2ccccc2)cc1` (centres unmarked) [CBK267937]: the viability at 28.5 h, 10 µM stood at 104%.

Regarding `CN1CCN(c2ccccc2NC(=O)CSc2ccc(Cl)cc2)CC1` [CBK267941], the viability at 28.5 h, 10 µM was found to be 98.9%.

With `Nn1c(SCCCCSc2nnc(C(F)(F)F)n2N)nnc1C(F)(F)F` [CBK267946], the viability at 28.5 h, 10 µM came out at 98.8%.

Regarding `COc1ccc(-c2cc3ccc(OC(C)C(=O)O)cc3oc2=O)cc1` (centres unmarked) [CBK267947], the viability at 28.5 h, 10 µM is 101%.

Turning to `Cc1ccccc1NS(=O)(=O)c1ccc(OCC(=O)N2CCN(C)CC2)cc1` [CBK267948], the viability at 28.5 h, 10 µM is 88.4%.

For the molecule `Cc1ccc(C)c(N2CCN(CCCNC(=S)Nc3ccc(Cl)cc3Cl)CC2)c1` [CBK267951], the viability at 28.5 h, 10 µM was determined as 99.6%.

For `O=C(Nc1nc2n(n1)C(c1ccc(F)cc1)CC(c1ccccc1)N2)c1cccnc1` (centres unmarked) [CBK267953], the viability at 28.5 h, 10 µM worked out at 88.9%.

On to `O=C(O)CCc1ccc(-c2ccccc2)n1CC1CCCO1` (centres unmarked) [CBK267955], for which the viability at 28.5 h, 10 µM stood at 102%.

Take `C=CCn1c(SCC(=O)N2CCN(c3ccccc3)CC2)nnc1-c1ccc(N)cc1` [CBK267956]: the viability at 28.5 h, 10 µM was 99.8%.

As for `O=C(c1ccc(NS(=O)(=O)c2ccccc2)cc1)N1CCN(Cc2ccc3c(c2)OCO3)CC1` [CBK267957], the viability at 28.5 h, 10 µM amounted to 102%.

Take `COc1ccc(S(=O)(=O)N2CCC(C(=O)Nc3ccccc3SC)CC2)cc1C` [CBK267960]: the viability at 28.5 h, 10 µM worked out at 96.2%.

Take `Cc1cccc(OCCCC(=O)Nc2ccc(S(N)(=O)=O)cc2)c1C` [CBK267963]: the viability at 28.5 h, 10 µM worked out at 90.8%.

On to `COCCN1CCn2c(nc3cc(NC(=O)c4cccc([N+](=O)[O-])c4)ccc32)C1` [CBK267965], for which the viability at 28.5 h, 10 µM was determined as 98.9%.

On to `N#C/C(=C\c1cn(CCC(N)=O)c2ccccc12)c1nc2ccccc2[nH]1` [CBK267966], for which the viability at 28.5 h, 10 µM came out at 104%.

Regarding `N#CCCn1cc(C(=O)Oc2ccc(-c3ccccc3)cc2)c(-c2cccc([N+](=O)[O-])c2)n1` [CBK267968], the viability at 28.5 h, 10 µM was determined as 105%.

As for `CCOC(=O)c1c(NC(=O)CSc2nncn2C)sc(C)c1C` [CBK267970], the viability at 28.5 h, 10 µM was determined as 89.8%.

On to `CN(C)S(=O)(=O)N(CC(=O)NCc1ccco1)c1ccccc1` [CBK267971], for which the viability at 28.5 h, 10 µM turned out to be 97.3%.

As for `O=C(O)C1CCCCC1C(=O)NCCc1ccc(Cl)cc1` (centres unmarked) [CBK267972], the viability at 28.5 h, 10 µM stood at 98.5%.

In the case of `CCCc1oc(C(=O)O)cc1CN1CCCCC1` [CBK267973C], the viability at 28.5 h, 10 µM amounted to 99%.

`CN1CCN(Cc2c(O)ccc3cc(-c4ccc(F)cc4)c(=O)oc23)CC1` [CBK267976]: the viability at 28.5 h, 10 µM stood at 111%.

Consider `Oc1ccc(CN2CCN(c3ccc(F)cc3)CC2)c2cccnc12` [CBK267985], for which the viability at 28.5 h, 10 µM turned out to be 117%.

Turning to `Cn1c2ccccc2c2nnc(SCCc3ccccc3)nc21` [CBK267986], the viability at 28.5 h, 10 µM amounted to 109%.

Turning to `COCCN1CCn2c(nc3cc(NC(=O)c4ccco4)ccc32)C1` [CBK267990], the viability at 28.5 h, 10 µM is 88.2%.

On to `S=C(Nc1ccccc1)N(Cc1ccccc1)Cc1ccncc1` [CBK267991], for which the viability at 28.5 h, 10 µM amounted to 96.8%.

As for `Cc1cccc(C(C)C)c1NC(=O)C1Cc2ccccc2CN1S(=O)(=O)c1ccc(F)cc1` (centres unmarked) [CBK267992], the viability at 28.5 h, 10 µM came out at 101%.

Turning to `COc1cccc(/C=C(/C#N)c2ccc(F)cc2)c1OCc1cccc(C(=O)O)c1` [CBK267993], the viability at 28.5 h, 10 µM turned out to be 102%.

With `CN(C)S(=O)(=O)N(CC(=O)N1CCN(Cc2ccc3c(c2)OCO3)CC1)c1ccccc1` [CBK267994], the viability at 28.5 h, 10 µM was 102%.

With `COc1ccc(S(=O)(=O)N(CC(=O)O)C2CCCCC2)cc1Cl` [CBK267997], the viability at 28.5 h, 10 µM is 81.5%.

As for `Cc1cccc(C)c1N1CCN(CCn2c(=S)[nH]c3ccccc3c2=O)CC1` [CBK267998], the viability at 28.5 h, 10 µM came out at 89.9%.

As for `Nc1ccc(S(=O)(=O)NC2(C(F)(F)F)NC(=O)N(c3ccccc3Cl)C2=O)cc1` (centres unmarked) [CBK268003], the viability at 28.5 h, 10 µM was 107%.

As for `COc1cccc(C(=O)Nc2cc3c(cc2C(O)c2ccccc2Cl)OCCO3)c1` (centres unmarked) [CBK268004], the viability at 28.5 h, 10 µM amounted to 99.3%.

Turning to `O=C(Nc1cccc2cccnc12)c1ccc([N+](=O)[O-])o1` [CBK268007], the viability at 28.5 h, 10 µM is 61.1%.

As for `O=C(CSc1nnc(Cc2ccccc2)o1)N1c2ccccc2Sc2ccccc21` [CBK268008], the viability at 28.5 h, 10 µM is 96.4%.

Turning to `CCOc1c(Br)cc(CNc2nc[nH]n2)cc1OC` [CBK268009], the viability at 28.5 h, 10 µM amounted to 104%.

Turning to `Cc1ccc(Cl)c(N2CCN(CCCn3c(=S)[nH]c4ccccc4c3=O)CC2)c1` [CBK268011], the viability at 28.5 h, 10 µM is 90%.

For `Cc1cc(C)cc(OCc2nnc(SCC(=O)N3CCN(c4ccccc4)CC3)o2)c1` [CBK268012], the viability at 28.5 h, 10 µM came to 96.7%.

As for `O=S(=O)(NCCSc1nnnn1-c1ccccc1)c1cccs1` [CBK268013], the viability at 28.5 h, 10 µM stood at 112%.

As to `Nc1cc(O)nc(SCC(=O)N2CCN(C(c3ccccc3)c3ccccc3)CC2)n1` [CBK268014], the viability at 28.5 h, 10 µM came to 94%.

On to `O=C(O)CN(c1ccc2c(c1)OCCO2)S(=O)(=O)c1ccccc1` [CBK268017], for which the viability at 28.5 h, 10 µM is 115%.

For the molecule `O=C(CSc1nc(-c2cccc([N+](=O)[O-])c2)cs1)NCC1CCCO1` (centres unmarked) [CBK268020], the viability at 28.5 h, 10 µM was 92.8%.

For `CCn1c(SCC(=O)Nc2ccc(OC)c(Cl)c2)nnc1-c1ccccc1O` [CBK268021], the viability at 28.5 h, 10 µM turned out to be 101%.

`O=C(NCCN1CCOCC1)c1cc(-n2cnnc2)ccc1Cl` [CBK268023]: the viability at 28.5 h, 10 µM is 97.1%.

In the case of `CC(=O)Nc1c(O)nc(SCC(=O)Nc2ccccc2C(N)=O)[nH]c1=O` [CBK268031], the viability at 28.5 h, 10 µM came to 97.8%.

Regarding `Cc1ccc(OCCCC(=O)Nc2ccc(C(N)=O)cc2)c(C)c1` [CBK268032], the viability at 28.5 h, 10 µM worked out at 93.8%.

As for `CC(c1ccccc1)N1CCn2c(nc3cc(NC(=O)COc4ccccc4)ccc32)C1` (centres unmarked) [CBK268033], the viability at 28.5 h, 10 µM was 105%.

On to `O=C(CC1Nc2cccc3cccc(c23)NC1=O)Nc1ccccc1` (centres unmarked) [CBK268035], for which the viability at 28.5 h, 10 µM came out at 87.2%.

Regarding `Cc1nn2c(CN(C(=O)COc3ccccc3)c3ccccc3)nnc2c2ccccc12` [CBK268036], the viability at 28.5 h, 10 µM turned out to be 83.4%.

As to `O=C(OCc1ccc(Sc2ccc([N+](=O)[O-])cc2Cl)cc1)c1cnccn1` [CBK268037], the viability at 28.5 h, 10 µM came out at 93.4%.

In the case of `O=C(NCCN1CCN(Cc2ccccc2Cl)CC1)Nc1ccccc1` [CBK268039], the viability at 28.5 h, 10 µM worked out at 93.4%.

As for `CC1CCN(S(=O)(=O)c2ccc(NC(=O)CCn3c(=O)oc4ccccc43)cc2)CC1` [CBK268040], the viability at 28.5 h, 10 µM was 97.1%.

`CCOc1ccccc1CNCc1ccccn1` [CBK268041C]: the viability at 28.5 h, 10 µM was 103%.

In the case of `CC(=O)C1=C(C)N(CC2CCCO2)C(=O)C1(NC(=O)c1ccc(C(C)(C)C)cc1)C(F)(F)F` (centres unmarked) [CBK268043], the viability at 28.5 h, 10 µM came out at 93.2%.

In the case of `O=c1c2c([nH]c3nc(NCc4ccc(OCc5ccccc5)cc4)nn13)CCC2` [CBK268044], the viability at 28.5 h, 10 µM is 96.9%.

Turning to `Cc1ccc(CSCCNS(=O)(=O)c2ccc3ccccc3c2)cc1` [CBK268048], the viability at 28.5 h, 10 µM turned out to be 107%.

As to `CCc1ccc(OC(C)c2nnc(SCC(=O)N3c4ccccc4Sc4ccccc43)n2C)cc1` (centres unmarked) [CBK268058], the viability at 28.5 h, 10 µM was 92.3%.

As to `O=C(CSCc1ccc(Br)cc1)N1CCN(Cc2ccc3c(c2)OCO3)CC1` [CBK268059], the viability at 28.5 h, 10 µM amounted to 89.7%.

Consider `O=C(O)c1cccc(CSc2nnc(Cc3ccccc3)o2)c1` [CBK268060], for which the viability at 28.5 h, 10 µM turned out to be 92%.

Turning to `Cc1ccc(SCc2ccc(C(=O)NCc3cccnc3)cc2)cc1` [CBK268063], the viability at 28.5 h, 10 µM came to 96.9%.

For the molecule `COC(=O)c1ccc(NC(=O)CNc2ccccc2)cc1` [CBK268064], the viability at 28.5 h, 10 µM came out at 110%.

On to `O=C(O)CSc1nc(O)c2c(-c3ccccc3)csc2n1` [CBK268067], for which the viability at 28.5 h, 10 µM worked out at 107%.

For `CSc1nsc(SCC(=O)N2CCN(C(c3ccccc3)c3ccccc3)CC2)n1` [CBK268071], the viability at 28.5 h, 10 µM was 89.2%.

On to `N#CCCn1cc(C(=O)n2nnc3ccccc32)c(-c2cc3ccccc3o2)n1` [CBK268073], for which the viability at 28.5 h, 10 µM was 103%.

Regarding `CCOc1ccccc1NC(=O)CSc1nc(N)cc(O)n1` [CBK268075], the viability at 28.5 h, 10 µM came to 107%.

Consider `O=C(CSc1nc(O)c2c(-c3ccccc3)csc2n1)NCCc1ccccc1` [CBK268077], for which the viability at 28.5 h, 10 µM came to 97.2%.

On to `CCOC(=O)c1c[nH]c2nc(COc3ccccc3)nn2c1=O` [CBK268088], for which the viability at 28.5 h, 10 µM worked out at 107%.

Take `COc1ccc(S(=O)(=O)N(C)CC(=O)NCc2cccnc2)cc1Cl` [CBK268089]: the viability at 28.5 h, 10 µM is 108%.

In the case of `CCOc1ccc(CNCCc2ccc(S(N)(=O)=O)cc2)cc1` [CBK268090C], the viability at 28.5 h, 10 µM was 94.6%.

Consider `CCN1CCN(C(=O)CN(C)S(=O)(=O)c2ccc(OC)c(Cl)c2)CC1` [CBK268091], for which the viability at 28.5 h, 10 µM came out at 93.2%.

As for `Cn1nnnc1SCc1nc(N)nc(Nc2ccccc2)n1` [CBK268092], the viability at 28.5 h, 10 µM came out at 98.7%.

As for `COc1ccc2nc(O)c(CN(c3ccccc3)S(=O)(=O)c3ccccc3)cc2c1` [CBK268093], the viability at 28.5 h, 10 µM worked out at 97.7%.

With `COc1ccc(NC(=O)c2ccc(N(C)Cc3ccccc3)c([N+](=O)[O-])c2)cc1` [CBK268094], the viability at 28.5 h, 10 µM came out at 86.4%.

For `O=C(COc1ccc(N2CC(C(=O)O)CC2=O)cc1)Nc1cccc(C(F)(F)F)c1` (centres unmarked) [CBK268096], the viability at 28.5 h, 10 µM turned out to be 100%.

Turning to `CCn1c(C)c(/C=C/c2nc3ccccc3c(=O)n2CCCO)c2ccccc21` [CBK268099], the viability at 28.5 h, 10 µM was 95.7%.

As to `CC12CN(S(=O)(=O)c3ccccc3)CC(c3ccccc3)(CN(S(=O)(=O)c3ccccc3)C1)C2=O` [CBK268101], the viability at 28.5 h, 10 µM was 97%.

As to `CC(C)NS(=O)(=O)c1ccc(NC(=O)Cc2cccc3ccccc23)cc1` [CBK268102], the viability at 28.5 h, 10 µM turned out to be 94.8%.

Regarding `CCn1c(COc2c(C)cccc2C)nnc1SCC(=O)N1c2ccccc2Sc2ccccc21` [CBK268103], the viability at 28.5 h, 10 µM stood at 96.4%.

For the origin of these results see article PMC12040169 (PLOS Biology, 2025).
